Experimental data published in patent US12077495B2 (priority 2018, dated 2024).

Tests used:
[1] = tested on: GFAP, CD14 and MMP9 mRNA; assay: qPCR of molecular markers in peri-infarct tissue after photothrombotic focal ischemia; assay type: in vivo, mice; conditions: 3 days post-stroke
Description: Tissue from the peri-infarct area was collected and snap-frozen 12-72 hrs post stroke and RNA was extracted using a RNA mini kit (Qiagen) following the instructions from the manufacturer. Extracted RNA was treated with DNAse using Turbo DNA-free kit (Ambion), all according to the manufacturer's protocol. The reverse transcription was performed using gScript™ cDNA SuperMix (Quanta Biosciences, Gaithersburg, MD, USA) on a standard PCR machine (25° C. for 5 min, 42° C. for 30 min, 85° C. for 5 min) and cDNA stored at −20° C. until further processing.
qPCR was performed in 96-well plates (Agilent Technologies, Santa Clara, CA, USA) mixing PerfeCTa SYBR Green FastMix (Quanta Biosciences), nuclease free water (Qiagen, West Sussex, UK), and primers (TAG Copenhagen A/S (Copenhagen, Denmark). The PCR was performed with an initial denaturation step of 95° C. for 30 s, followed by 40 cycles of 5 s at 95° C., 60° C. for 15 s and 72° C. for 10 s. To assure single-product amplification, a dissociation curve analysis was performed consisting of 60 s at 95° C., 30 s at 55° C. and 30 s at 95° C. The qPCR was performed using the Agilent Mx3005P qPCR system (Agilent Technologies), and the corresponding MxPro software was used to determine the Ct values. The ΔCt values were calculated using 2 (Reference Ct−Target Ct).
To investigate the protective mechanisms against brain damage following a focal ischemic insult, mRNA expression levels of the markers GFAP, CD14 and MMP9 were measured in the brain tissue surrounding the ischemic core 3 days post-stroke.

[2] = tested on: MCP-1, IL-6 and IL-1a; assay: Quantification of cytokines in plasma after photothrombotic focal ischemia; assay type: in vivo, mice; conditions: 4 hrs after focal ischemia
Description: Detection of MCP-1 (monocyte chemotactant protein-1), IL-6 (interleukin-6) and IL-1a (interleukin-1a) was performed using a LEGENDplex assay kit according to the manufacturers' instructions (BioPlex, BioLegend, San Diego, CA, USA).
To evaluate the inflammatory response at early time points, blood samples were collected 4 hrs after induction of a focal ischemic event.

[3] = tested on: permanent middle cerebral artery occlusion in C57BL/6J mice; assay: pMCAO model, behavioural assessment (rotarod, grip strength, Hargreaves); assay type: in vivo; conditions: 175 mg/kg 30 min after pMCAO
Description: To assess sensory-motor impairment, animals were tested in the rotarod, grip strength and Hargreaves tests 2-3 days post-stroke.
The rotarod (LE 8200, Panlab) measures motor performance in rodents by assessing the time during which the animal remains on a rotating rod. The rod rotation accelerates from 0 to 40 rounds per min (rpm) over a time period of 5 min 48 hrs post-stroke, mice were tested in four repeating trials with a 20 min interval (resting time). Prior to surgery, mice were pretrained to stay on the rod for 30 s at 4 rpm. The grip strength meter (BIO-GT-3, BIOSEB) allowed the study of neuromuscular functions in mice by determining the maximum force that is required to make the mouse release its grip.
The mouse is allowed to grasp a metal grid and then pulled backwards in the horizontal plane. The force applied to the grid is recorded as the peak tension. Individual (right and left) and total (both) front paw grip strength was measured before (baseline) and 3 days after pMCAO. Each mouse was tested in five sequential trials and the highest grip strength was recorded as the score. Thermal hyperalgesia (hind paw withdrawal from a normally innocuous heat source) was tested with a Hargreaves test setup. […] The lowest and highest reflex latency scores were discarded and the average for left and right was calculated and plotted.
Compound A (175 mg/kg) was administered to mice 30 min after induction of a focal stroke via a permanent occlusion of the middle cerebral artery and compared to saline-treated animals and both motor- and sensory impairment was investigated using rotarod, grip strength and Hargreaves tests.

[4] = tested on: proton-coupled transporters (MCTs) endogenously present in tsA201 cells; assay: MCT-mediated uptake in tsA201 cells (BCECF pH-sensitive dye); assay type: cell-based; conditions: 2 min, read-out: EC50, concentration-dependent decrease in intracellular pH
Description: Uptake was measured using the cell-permeable pH-sensitive dye 2′,7′-Bis(2-carboxyethyl)-5(6)-carboxyfluorescein acetoxymethyl ester (BCECF-AM) (Molecular Probes), utilizing the endogenous expression of MCTs in tsA201 cells. The day before the assay, cells were plated (50,000 cells/well) in black poly-D-lysin-coated 96-well plates with clear bottom (VWR, Radnor, PA, USA). […] Cells were then washed twice with 100 μl buffer and the cell plate assayed at 37° C. in a FlexStation 3 reader (Molecular Devices).
Cells (tsA201; related to HEK293-T) known to express MCTs were grown in 96-well plates and exposed to compounds and pH-decreased measured for 2 min.

[5] = target: T1, CAMK2A pThr286 autophosphorylation (Mus musculus, UniProt P11798); assay: pThr286 autophosphorylation in dissected mouse cortex after photothrombosis (Western blot); assay type: in vivo, mice; conditions: 175 mg/kg i.p.; cortex tissue; pThr286 normalized to total CAMK2A
T1 construct: cortical tissue isolated from mice subjected to photothrombotic injury; from tissue; host or cells: mouse cortex (infarct core), C57BL/6J, after in vivo dosing
T1 sequence (P11798 whole entry): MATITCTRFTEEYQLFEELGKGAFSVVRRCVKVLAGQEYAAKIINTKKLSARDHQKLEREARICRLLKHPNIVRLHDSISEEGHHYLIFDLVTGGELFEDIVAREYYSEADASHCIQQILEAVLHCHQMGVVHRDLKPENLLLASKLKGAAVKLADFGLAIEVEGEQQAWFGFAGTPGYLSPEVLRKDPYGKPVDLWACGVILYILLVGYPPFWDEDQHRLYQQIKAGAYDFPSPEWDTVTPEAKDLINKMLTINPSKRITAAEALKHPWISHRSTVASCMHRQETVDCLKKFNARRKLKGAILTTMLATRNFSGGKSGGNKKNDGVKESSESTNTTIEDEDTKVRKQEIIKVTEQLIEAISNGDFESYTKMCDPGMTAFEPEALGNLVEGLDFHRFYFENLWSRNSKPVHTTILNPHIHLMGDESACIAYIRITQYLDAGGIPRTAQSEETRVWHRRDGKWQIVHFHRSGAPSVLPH
Description: Along with the standard protocol for photothrombotic focal ischemia, mice were treated with either saline or 175 mg/kg A (i.p.) 30 min after the injury. Three hours after the injury, mice were sacrificed, brains were dissected out and immediately submerged in ice-cold PBS supplemented with 1% phosphatase and protease inhibitors (Phosphatase inhibitor cocktail 3 #P0044 (Sigma), Phosphatase inhibitor cocktail 2 #P5726 (Sigma) and complete EDTA protease inhibitors (Roche) for 5 min. Cortex tissue from the infarct core region (i.e. 1.5 mm right of bregma including the primary motor cortex with a diameter of 2 mm) was dissected and snap-frozen on dry ice. Tissue homogenization was performed using 1×RIPA buffer supplemented with phosphatase and protease inhibitors and a Bullet Blender. Autophosphorylation was assessed by Western blot analysis, comparing the total level of CAMK2A (quantified using anti-CAMK2A, #NB100-1983, Novus Biologicals) to the level of phosphorylated CAMK2A (pThr286: #12716S, Cell Signalling Technology; goat anti-rabbit HRP: #PI-1000 X0126, Vector). […]
To this end, sham mice or mice were treated with either saline or 175 mg/kg A (i.p.) 3 hrs after the injury. […] Autophosphorylation was assessed by Western blot analysis and levels of pThr286 CAMK2A normalized to total CAMK2A to detect changes in autophosphorylation.

[6] = 175 mg/kg 30 min after ischemia

O=C(O)C1=CC(O)CC1 (stereo not drawn) [Compound A, 3-hydroxycyclopent-1-enecarboxylic acid]
MMP9 mRNA levels ([1]; 17.5 mg/kg, vs saline): significantly lower | CD14 mRNA levels [1, 6]: markedly lowered | MMP9 mRNA levels [1, 6]: markedly lowered | GFAP mRNA levels ([1]; peri-infarct tissue, vs saline): not different | MCP-1 plasma levels [2]: tendency towards a decrease | IL-1a plasma levels ([2]; vs saline): did not significantly affect | IL-6 plasma levels ([2]; vs saline): significantly lowered | Hargreaves test, increased response time in affected forelimb [3]: not evident | rotarod test, learning ([3]; 48 hrs post-stroke, T1 to T2): steeper learning curve | grip strength deficit in affected fore limb ([3]; three days after stroke): did not demonstrate any deficit | EC50 [4]: 8.2 mM | decrease in pThr286 autophosphorylation [5]: 73%
